For assay [1], the system named is mouse spleen cells, antibody response to sheep red blood cells. As to conditions: morphine positive control; ref Rahim et al, 2001; cited from earlier work.
For assay [2], the system named is ORL-1. To be noted: in vitro; ref Knoflach et al, 1996; Reinscheid et al, 1995; cited from earlier work.
Assay [3] concerns ORL-1. To be noted: in vivo; ref Chen et al, 2001; cited from earlier work.
The test system of assay [4] is mouse spleen cells. To be noted: 2 hrs pretreatment, same PFC assay; ref Eisenstein et al, 1995; cited from earlier work.
Assay [5] deals with human monocytes. As to conditions: 10^−6 M naloxone; ref Trombella et al, 2005; cited from earlier work.
The subject of assay [6] is C-1 A-APA (affinity-purified rabbit antiserum to N/OFQ). Kind of assay: Solid-phase RIA, displacement of. It is filed as binding. As to conditions: for cross-reactivity in RIA: competitive peptide 1 × 10^−6 M to 1.5 × 10^−12 M.
The test system of assay [7] is C-4 A-APA (affinity-purified rabbit antiserum to N/OFQ). As to the kind of experiment: Solid-phase RIA, displacement of. It is filed as binding. As to conditions: for cross-reactivity in RIA: competitive peptide 1 × 10^−6 M to 1.5 × 10^−12 M.
For assay [8], the system named is C-1 A-APA. Kind of assay: Dot-blot cross-reactivity, C-1 A-APA. The class given is binding, rabbit. To be noted: membrane-spotted peptides.
Assay [9] concerns C-4 A-APA. As to the kind of experiment: Dot-blot cross-reactivity, C-4 A-APA. The class given is binding, rabbit. As to conditions: membrane-spotted peptides.
Assay [10] concerns mouse spleen cells. Kind of assay: Primary in vitro plaque-forming cell. The class given is cell-based, mouse (C3HeB/FeJ). To be noted: primary PFC assay.
Assay [11] relates to mouse spleen cells, antibody response to sheep red blood cells. To be noted: s.c. Alzet pump, 48 hr.
The subject of assay [12] is Con A activated rat splenocytes. To be noted: ref Miller and Fulford, 2007, cited from earlier work.
For assay [13], the system named is human T cells. As to conditions: cited from earlier work.
The subject of assay [14] is delta opioid receptor. To be noted: ref Mollereau et al, 1994; Pan et al, 1995; cited from earlier work.
The test system of assay [15] is mu opioid receptor. As to conditions: ref Mollereau et al, 1994; Pan et al, 1995; cited from earlier work.
Assay [16] deals with kappa opioid receptor. As to conditions: ref Mollereau et al, 1994; Pan et al, 1995; cited from earlier work.
In assay [17] the test system is human monocytes and monocyte-like cell lines (CCL2/MCP-1, CCL5/RANTES). As to conditions: CCL2/MCP-1 and CCL5/RANTES; ref Kaminsky and Rogers, 2008; cited from earlier work.
Assay [18] concerns astrocyte cultures. As to conditions: lipopolysaccharide in vitro; ref Fu et al, 2007; cited from earlier work.
In assay [19] the test system is astrocytes. As to conditions: peripheral administration of an inflammatory stimulus; ref Fu et al, 2007; cited from earlier work.
Assay [20] has as its system mouse spleen (TNF-α and IFN-γ mRNA). As to conditions: in vivo; cited from earlier work.
In assay [21] the test system is ORL-1 receptor. To be noted: cited from earlier work.

The term IC80 denotes the point of the concentration-response curve where the effect stands at 80%. Low readings indicate greater potency, high ones weaker potency. For orientation: IC20 means the concentration needed for an effect of 20%.

Entries after “also recorded” stand apart in the source; their conditions may differ. Read-outs that look alike come from different tables or passages of the source.

With `CN1CC[C@]23c4c5ccc(O)c4O[C@H]2[C@@H](O)C=C[C@H]3[C@H]1C5` [morphine], the “dose producing maximal immunosuppression” value in assay [1] is on record as 0.5 mg/kg/day.

As for `C=CCN1CC[C@]23c4c5ccc(O)c4O[C@H]2C(=O)CC[C@@]3(O)[C@H]1C5` [naloxone], the “naloxone sensitivity of ORL-1 activity” value in assay [2] and in assay [3] was “naloxone insensitive” each time. Besides, in [4], the “block of immunosuppressive effect of morphine and U50488” value was “completely blocked the immunosuppressive effect of morphine and of the kappa agonist, U50488”. For the same molecule, the “effect of naloxone on chemotaxis induced by the peptide” value in assay [5] is on record as “did not block human monocyte chemotaxis”.

As for BAM-18, the “cross-reactivity in RIA” value in assay [6] is “no significant cross-reactivity; also recorded: No significant cross-reactivities were detected”; in assay [7], “did not show significant cross-reactivity; also recorded: No significant cross-reactivities were detected”. Moreover, the dot-blot reactivity entry in assay [8] and in assay [9] was “not to classical opioid” throughout.

Regarding Dynorphin A1-17, the “cross-reactivity in RIA” value in assay [6] was “no significant cross-reactivity”; in assay [6] (listed as Dynorphin A1-17) it was “No significant cross-reactivities were detected”; in assay [7], “did not show significant cross-reactivity”; in assay [7] (listed as Dynorphin A1-17), “No significant cross-reactivities were detected”.

“Tyr-Gly-Gly-Gly-Met [Met-enkephalin, Met-Enkephalin]”: the dot-blot reactivity entry in [8] and in [9] was “not to classical opioid” throughout.

Take “Tyr-Gly-Gly-Phe-Leu [Leu-enkephalin, Leu-Enkephalin]”: the “cross-reactivity in RIA” value is “no significant cross-reactivity” in assay [6], “No significant cross-reactivities were detected” in assay [6] (listed as Leu-Enkephalin), “did not show significant cross-reactivity” in assay [7] and “No significant cross-reactivities were detected” in [7] (listed as Leu-Enkephalin). For the same molecule, the dot-blot reactivity entry in [8] and in assay [9] was “not to classical opioid” in each case.

For nociceptin/orphanin FQ [N/OFQ], the “suppression of antibody formation” value in [10] was “suppressed antibody formation to sheep red blood cells; also recorded: suppresses both the secondary and primary plaque-forming cell assay”. The 80% effect concentration (IC80) in [6] (solid-phase RIA, C-1 A-APA) was 2.9 nM; in assay [7] (solid-phase RIA, C-4 A-APA), 0.71 nM. The IC20 in assay [7] (read-out: smallest measurable displacement, IC20, solid-phase RIA, C-4 A-APA) stood at 0.062 nM. Moreover, the dot-blot reactivity result in assay [8] and in [9] was “showed reactivity to the three nociceptin peptides” each time. In addition, in assay [11], the “dose of maximal immunosuppression” value is given as 0.05 mg/kg/day. Moreover, the “inhibition of proliferation” value in assay [12] (Con A activated rat splenocytes) is reported as “inhibit the proliferation”. Moreover, the “inhibition of IL-2 production” value in [12] (in vitro) was “inhibit the proliferation of Con A activated rat splenocytes, as well as the production of IL-2”. For the same molecule, the CD28 expression entry in [13] is recorded as “up-regulated expression of the co-stimulatory molecule CD28”. Moreover, the CTLA-4 expression result in [13] was “upregulate CTLA-4”. In assay [13], the PGE2 induction result is “induced PGE2”. In assay [13], the proliferation result is “increased proliferation”. The binding result in assay [14], in assay [15] and in assay [16] was “does not bind” throughout. For the same molecule, in assay [17], the chemokine production entry was “suppress the production of chemokine proteins”. In addition, the “mRNA for TNF-α, IL-1β, and IL-6” value in assay [18] and in assay [19] was “decrease expression of mRNA” each time. Besides, in assay [20], the “mRNA for TNF-α and IFN-γ in spleens” value is “increased levels of mRNA”. The “forskolin-induced cAMP accumulation” value in assay [21] was “inhibition of forskolin-induced cAMP accumulation”.
